Laboratory results: patent US3965109A, “Certain aryl amino pyridines” (priority 1971, dated 1976)

Assays:
[1] = system: Xanthomonas oryzae; type: cell-based; settings: 50 ppm; 5 days
[2] = system: Aedes aegypti (mosquito adults); experiment: Pest toxicity test; type: in vivo; settings: 0.01% by weight; plywood; 1 day
[3] = system: Plasmopara viticola (vine); experiment: Fungicidal test against foliar disease C (foliage spray plus soil drench); type: in vivo; settings: 100 ppm spray and drench; 10 days
[4] = system: Pieris brassicae (cabbage white caterpillars); experiment: Pest toxicity test; type: in vivo; settings: 0.1% by weight, 2 days
[5] = system: Tetranychus telarius (red spider mites, eggs); experiment: Pest toxicity test; type: in vivo; settings: 0.1% by weight; French bean; 3 days
[6] = system: Puccinia recondita (wheat); experiment: Fungicidal test against foliar disease A (foliage spray plus soil drench); type: in vivo; settings: 100 ppm spray and drench; 10 days
[7] = system: Streptomyces scabies; experiment: Antibacterial agar test (B7); type: cell-based; settings: 50 ppm; 5 days
[8] = system: Megoura viceae; experiment: Pest toxicity test; type: in vivo; settings: 0.1% by weight; broad bean; 2 days
[9] = system: Erwinia carotovora; experiment: Antibacterial agar test (B4); type: cell-based; settings: 50 ppm; 5 days
[10] = system: Plutella maculipennis (diamond back moth larvae); experiment: Pest toxicity test; type: in vivo
[11] = system: Pseudomonas syringae; experiment: Antibacterial agar test (B6); type: cell-based; settings: 50 ppm; 5 days
[12] = system: Phaedon cochleariae (mustard beetles); experiment: Pest toxicity test; type: in vivo
[13] = system: Xanthomonas malvacearum; experiment: Antibacterial agar test (B3); type: cell-based; settings: 50 ppm; 5 days
Procedure: (§1) This Example illustrates the activity of compounds used as the active ingredients of compositions according to the invention against a variety of plant bacterial diseases and fungal post-harvest saprophytic diseases. In a test for such activity, 5 milligrams of the compound to be tested was dissolved or suspended in 10 ml. of acetone and enough of this solution or suspension was added to 18 ml. of nutrient agar (for the bacterial diseases) or 16 ml. of 2% malt agar (for the fungal diseases) to give a final concentration of 50 parts per million of the compound under test. A streptomycin preparation (2 ml. containing 100 units per ml.) was added to the malt agar to prevent bacterial contamination of the fungal tests.
(§2) The agar preparations were dried overnight in Petri dishes and inoculated the following morning with the bacterial or fungal diseases using a multipoint inoculator. The antibacterial activity was assessed after 5 days and the antifungal activity after 6 days. The results of the tests are set out in Table 16 (anti bacterial activity) and Table 17 (antifungal activity). The results are graded as in Example 1 above.

[14] = system: Uncinula necator (vine); experiment: Fungicidal test against foliar disease D (foliage spray plus soil drench); type: in vivo; settings: 100 ppm spray and drench; 10 days
[15] = system: Agriolimax reticulatus (slugs); experiment: Molluscicidal activity test; type: in vivo, Agriolimax reticulatus (Mull); settings: pellet with 4% by weight; 6 days; 10°C
In short: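 Slugs were starved for 24 hours, then housed two per dish, in duplicate, under high humidity at 10°C. They fed on pellets dried to contain 4% w/w of test compound. Mortality was scored on day 6.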

[16] = system: Musca domestica (houseflies); experiment: Pest toxicity test, contact test; type: in vivo; settings: 0.1% by weight; milk/sugar; 2 days; flies sprayed directly
[17] = system: Aphis fabae; experiment: Pest toxicity test; type: in vivo; settings: 0.1% by weight; broad bean; 2 days
[18] = system: Agrobacterium tumifaciens; experiment: Antibacterial agar test (B1); type: cell-based; settings: 50 ppm; 5 days
[19] = system: Corynebacterium michiganense; experiment: Antibacterial agar test (B2); type: cell-based; settings: 50 ppm; 5 days
Procedure: as §1, §2

[20] = system: Tetranychus telarius (red spider mites, adults); experiment: Pest toxicity test; type: in vivo; settings: 0.1% by weight; French bean; 3 days
[21] = system: Aedes aegypti (mosquito larvae); experiment: Pest toxicity test; type: in vivo; settings: for Mortality grading (kill): 0.01% by weight, water, 1 day; for abnormal growth effects in larva of mosquitos: in vivo
[22] = system: Meloidogyne incognita (nematodes); experiment: Pest toxicity test; type: in vivo; settings: 0.01% by weight; water; 1 day
[23] = system: Piricularia oryzae (rice); type: in vivo; settings: 100 ppm spray and drench; 7 days
[24] = 0.1% by weight, mustard/paper, 2 days

Row | Compound | Mortality grading (kill) [2] | Amount of disease grading, disease C [3] | Mortality grading (kill) [4] | Mortality grading (kill) [5] | Amount of disease grading, disease A [6] | Mortality grading (kill) [8] | Mortality grading (kill) ([10]; in vivo) | Mortality grading (kill) ([12]; in vivo) | Amount of disease grading, disease D [14] | % Kill of slugs [15] | Mortality grading (kill), contact test [16] | Mortality grading (kill) [17] | Mortality grading (kill) [20] | Mortality grading (kill) [21] | Mortality grading (kill) [22] | abnormal growth effects in larva of mosquitos [21] | further results
1 | O=[N+]([O-])c1ccc(Nc2c(F)c(F)nc(F)c2F)c([N+](=O)[O-])c1 [Compound 15, 4(2,4-Dinitroanilino)-tetrafluoropyridine] | 0 (O represents less than 30% kill) | 3 (0 to 5) | 3 (3 represents over 90% kill) | 2 (2 represents 60 - 90% kill) | 2 (6 to 25) | 0 (O represents less than 30% kill) | 0 (key: O represents less than 30% kill; 1 represents 30 - 49% kill; 2 represents 60 - 90% kill; 3 represents over 90% kill; C indicates a chemosterilant effect.; A indicates an antifeeding effect.) | 2 (key: O represents less than 30% kill; 1 represents 30 - 49% kill; 2 represents 60 - 90% kill; 3 represents over 90% kill; C indicates a chemosterilant effect.; A indicates an antifeeding effect.) | 3 (0 to 5) | 50% | 2 (2 represents 60 - 90% kill) | 0 (O represents less than 30% kill) | 3 (3 represents over 90% kill) | 0 (O represents less than 30% kill) | – | – | Antibacterial activity grading B5 [1]: 3 (0 to 5); Antibacterial activity grading B7 [7]: 3 (0 to 5); Antibacterial activity grading B4 [9]: 3 (0 to 5); Antibacterial activity grading B6 [11]: 3 (0 to 5); Antibacterial activity grading B3 [13]: 3 (0 to 5); Antibacterial activity grading B1 [18]: 3 (0 to 5); Antibacterial activity grading B2 [19]: 3 (0 to 5)
2 | O=[N+]([O-])c1ccccc1Nc1c(Cl)c(F)nc(F)c1Cl [Compound 11, 3,5-Dichloro-2,6-difluoro-4(2-nitroanilino)pyridine] | 0 (O represents less than 30% kill) | – | 0 (O represents less than 30% kill) | 0 (O represents less than 30% kill) | – | 0 (O represents less than 30% kill) | 0 (key: O represents less than 30% kill; 1 represents 30 - 49% kill; 2 represents 60 - 90% kill; 3 represents over 90% kill; C indicates a chemosterilant effect.; A indicates an antifeeding effect.) | 0 (key: O represents less than 30% kill; 1 represents 30 - 49% kill; 2 represents 60 - 90% kill; 3 represents over 90% kill; C indicates a chemosterilant effect.; A indicates an antifeeding effect.) | – | – | 0 (O represents less than 30% kill) | 0 (O represents less than 30% kill) | 0 (O represents less than 30% kill) | 0 (O represents less than 30% kill) | 2 (2 represents 60 - 90% kill) | – | –
3 | Fc1ccc(Nc2c(Cl)c(F)nc(F)c2Cl)cc1 [Compound 4, 3,5-Dichloro-2,6-difluoro-4(p-fluoroanilino)pyridine] | 0 (O represents less than 30% kill) | – | 0 (O represents less than 30% kill) | 0 (O represents less than 30% kill) | – | 0 (O represents less than 30% kill) | – | – | – | 100% | 0 (O represents less than 30% kill) | 0 (O represents less than 30% kill) | 0 (O represents less than 30% kill) | 0 (O represents less than 30% kill) | 2 (2 represents 60 - 90% kill) | abnormal growth effects | Mortality grading (kill) [10, 24]: 0 (O represents less than 30% kill); Mortality grading (kill) [12, 24]: 0 (O represents less than 30% kill)
4 | COc1ccc(Nc2c(Cl)c(F)nc(F)c2Cl)c([N+](=O)[O-])c1 [Compound 18, 3,5-Dichloro-2,6-difluoro-4(4-methoxy-2-nitroanilino)pyridine] | 0 (O represents less than 30% kill) | – | 0 (O represents less than 30% kill) | 2 (2 represents 60 - 90% kill) | – | 0 (O represents less than 30% kill) | 0 (key: O represents less than 30% kill; 1 represents 30 - 49% kill; 2 represents 60 - 90% kill; 3 represents over 90% kill; C indicates a chemosterilant effect.; A indicates an antifeeding effect.) | 0 (key: O represents less than 30% kill; 1 represents 30 - 49% kill; 2 represents 60 - 90% kill; 3 represents over 90% kill; C indicates a chemosterilant effect.; A indicates an antifeeding effect.) | – | 50% | – | 0 (O represents less than 30% kill) | 0 (O represents less than 30% kill) | 0 (O represents less than 30% kill) | 0 (O represents less than 30% kill) | – | –
5 | Fc1nc(F)c(Cl)c(Nc2cc(C(F)(F)F)ccc2Br)c1Cl [Compound 13, 3,5-Dichloro-2,6-difluoro-4(2-bromo-5-trifluoromethylanilino)pyridine] | 0 (O represents less than 30% kill) | 3 (0 to 5) | 0 (O represents less than 30% kill) | 0 (O represents less than 30% kill) | 0 (61 to 100) | 0 (O represents less than 30% kill) | 0 (key: O represents less than 30% kill; 1 represents 30 - 49% kill; 2 represents 60 - 90% kill; 3 represents over 90% kill; C indicates a chemosterilant effect.; A indicates an antifeeding effect.) | 0 (key: O represents less than 30% kill; 1 represents 30 - 49% kill; 2 represents 60 - 90% kill; 3 represents over 90% kill; C indicates a chemosterilant effect.; A indicates an antifeeding effect.) | 0 (61 to 100) | – | 0 (O represents less than 30% kill) | 0 (O represents less than 30% kill) | 0 (O represents less than 30% kill) | 0 (O represents less than 30% kill) | 0 (O represents less than 30% kill) | abnormal growth effects | Amount of disease grading, disease E [23]: 2 (6 to 25)
